Assay [1] deals with amyloid precursor protein (APP). Description: Down regulation of APP in RAW cells by psychedelic drugs (Example 5). The assay is classed as cell-based. Conditions: post 2 hours treatment (FIG. 9).
The test system of assay [2] is ABCF1. The assay is classed as cell-based, murine. Conditions: RAW264.7, 10 nM, 100 nM, 500 nM, 2 hours post treatment, normalized to GAPDH (FIG. 2). The method, then: • 1. Macrophage cell line RAW264.7 (ATCC) were grown to 80% confluency in growth media (DMEM+10% FBS+glutamine). • 2. Dilutions of the drugs were made at desired final concentrations for a Dose response experiment. The concentrations' used for this experiment are: 10 nM, 100 nM, 500 nM for Psilocin, Psylocibin, 4-Acetoxy-N, N-dimthyltryptamine, O-Acetyl Psilocin Fumerate, and 4-acetoxyindole. • 3. Untreated cells were used as negative control and Escitalopram at 0.3 mM was used as a positive control to activate ABCF1 expression for all the experiments. Analysis by qPCR:
• 1. 2 hours post treatment with drugs, the reaction was stopped by removing the media with the drug. Cells were then collected and RNA was isolated from these. • 2. After checking the quality of the RNA, cDNA was generated and qPCR was run with ABCF1 primers as the target gene and GAPDH as the house keeping gene. • 3. Normalized against the expression level of GAPDH, the fold change expression level of ABCF1 was calculated and tabulated for all treatment conditions.

The test system of assay [3] is ABCF1. Description: Escitalopram induces ABCF1 in a macrophage cell line (real time RT-PCR). The format is cell-based. The following applies: RAW macrophages, 0.3 mM, 1 hour. The procedure:
RAW macrophages were plated at 1×10^5 cells/well and cultured for 2 days. The cells were incubated with 0.3 mM Escitalopram for 1 hour, and then harvested for total RNA, which was extracted for real time RT-PCR specific for ABCF1 and IL-4. CT values were normalized with CT value for the housekeeping gene from the DMSO control.
(Real-time PCR tracks product formation cycle by cycle.)

Structures are written as SMILES. Like-named read-outs stand apart in the source and are kept apart here.

For the molecule `CC(=O)Oc1cccc2[nH]cc(CCN(C)C)c12.O=C(O)/C=C/C(=O)O` [APF, O-Acetyl Psilocin Fumerate], the “amyloid precursor protein (APP) expression” value in assay [1] is on record as “down regulation”. For the same molecule, the “ABCF1 transcription / expression” value in the assay with ABCF1 [2] is “enhance expression of ABCF1”.

`CN(C)CCC[C@@]1(c2ccc(F)cc2)OCc2cc(C#N)ccc21` [Escitalopram]: in the assay with ABCF1 [3] (vs DMSO control (FIG. 1)), the ABCF1 expression result is “induces ABCF1 expression”. For the same molecule, the “difference in the expression (ABCF1 and IL-4) after drug treatment” value in the assay with ABCF1 [3] (3 separate experiments) is recorded as “consistent with polarization towards an M2-like phenotype”.

As to `CN(C)CCc1c[nH]c2cccc(O)c12` [psilocin, 4-hydroxy-N,N-dimethyltryptamine, reference compound], the entries for the “ABCF1 transcription / expression” value in the assay with ABCF1 [2] and in the assay with ABCF1 [2] (listed as psylocin) were “enhance expression of ABCF1” and “upregulate ABCF1 transcription”, respectively.

Turning to `CC(=O)Oc1cccc2[nH]ccc12` [AOI, 4-acetoxyindole], the “amyloid precursor protein (APP) expression” value in assay [1] was “down regulation”. In the assay on ABCF1 [2], the “ABCF1 transcription / expression” value is “enhance expression of ABCF1”.

(Values after patent US20250281513A1, “USE OF PS[…] TREAT […]” (priority 2021, published 2025).)
